Source: US8722864B2 (Nutek Pharma Ltd., priority 2010, dated 2014)
Values joined by “and” are separate entries in the source; they are usually repeats but may differ in a detail not shown here. Equal entries are not always repeated.

Experiments:
[1] = Water (D2O) solubility by 1H NMR against DSS standard; format: physicochemical; details: for solubility at 3 days: water, thermodynamic from solid
Procedure: The method use involved stirring the sample in D2O for a period of 3 days, followed by filtration using a 0.2μ syringe filter. A measured volume of this saturated solution was diluted with a standard solution of DSS in D2O, and a ^1H NMR was taken. Integration of the DSS peaks compared to that of the analog would allow for the determination of its concentration, and thus the concentration of the saturated solution.

[2] = Solution stability (hydrolysis) in phosphate-buffered D2O at pD 5, 6, 7 monitored by 1H NMR; format: physicochemical; details: for stability to the pD's (in words): pD 5, 6, 7 in D2O; for Time to % hydrolysis t10% / Time to % hydrolysis t25% / Time to % hydrolysis t50%: 23° C.; for change in 1H NMR spectra: after 167 days, pD 5, 6, 7
Procedure: 10 mL (11.07 g) D2O was placed in 3 separate vials with a stir bar and 0.002 moles (0.272 g) monobasic potassium phosphate (KH2PO4) was added to each. With the pD metered, NaOD/D2O was added drop-wise to each to adjust the pD's to 5.0, 6.0, and 7.0. Each of these solutions was gently boiled before use. Thus each vial contained […] phosphate buffered solution. […] The sample was sterilized by heating for 10 seconds, and after it had cooled down to ambient temperature (about 1 minute), 0.3 mL of one of the 0.2 mM 3 buffered solutions was added. The 0.6 mL sample was then placed in a sterilized NMR tube and the tube sealed and labeled. Each of the samples was stored at 23° C. protected from the light and monitored by ^1H NMR (64 scans for each sample) periodically.

[3] = rat, in vivo, iv; for AUCinf/AUClast of the pro-drug: male, Sprague-Dawley
in vivo = details: male, Sprague-Dawley, rat, iv
[4] = water; cited from earlier work
[5] = Pharmacokinetics after intravenous administration in male Sprague-Dawley rats; details: for mean concentration of acetaminophen in rat plasma or blood: 66 μmol/kg nominal, plasma (blood for 18, 19);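 on all read-outs here: rats fasted overnight before dosing and fed about 4 h afterwards, with serial blood sampled through a carotid artery catheter at each time point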
[6] = stirred 3 days in D2O, 0.2 μ filtered
[7] = acetaminophen analyte after IV dose of acetaminophen or pro-drug, rat

Compound	relative molar solubility [1]	solubility at 3 days [1]	change in 1H NMR spectra [2]	AUCinf/AUClast of the pro-drug [3] [%]	AUC of the pro-drug (in words) [3]	half-lives of the pro-drug (in words) [3]	AUC(0-inf) (in vivo) [µM·h]	AUC(0-t) (in vivo) [µM·h]	C0 (in vivo) [µM]	MRT inf (in vivo) [min]	Vd (in vivo) [L/kg]	clearance (in vivo) [mL/min/kg]	half-life (in vivo) [min]	further results
CC(=O)Nc1ccc(O[C@@H]2C=C[C@H](O)[C@@H](CO)O2)cc1 [compound 1, N-(4-((2R,5S,6R)-5-hydroxy-6-(hydroxymethyl)-5,6-dihydro-2H-pyran-2-yloxy)phenyl)acetamide]	0.6	14000 µg/mL and 53000 µM	–	–	–	–	–	–	–	–	–	–	–	stability to the pD's (in words) [2]: least stable; Time to % hydrolysis t10% ([2]; pD 5, D2O): 0.3 days; Time to % hydrolysis t25% ([2]; pD 5, D2O): 0.8 days; Time to % hydrolysis t50% ([2]; pD 5, D2O): 2.0 days; Time to % hydrolysis t10% ([2]; pD 6, D2O): 2.25 days; Time to % hydrolysis t25% ([2]; pD 6, D2O): 6.25 days; Time to % hydrolysis t50% ([2]; pD 6, D2O): 17 days; Time to % hydrolysis t10% ([2]; pD 7, D2O): 5.5 days; Time to % hydrolysis t25% ([2]; pD 7, D2O): 26 days; Time to % hydrolysis t50% ([2]; pD 7, D2O): 70 days
CC(=O)Nc1ccc(O[C@H]2O[C@H](CO)[C@@H](O[C@H]3O[C@H](CO)[C@@H](O)[C@H](O)[C@H]3O)[C@H](O)[C@@H]2O)cc1 [compound 5, 1-(4-acetaminophenoxy) 2-epi maltose]	>14	> 621000 µg/mL and > 1.3e+06 µM	no change	106	high	relatively high	1.69	1.57	2.49	39.2	26.8	759	79.2	solubility (in words) [1]: highest solubility
CC(=O)Nc1ccc(O[C@H]2O[C@H](CO)[C@@H](O)[C@H](O)[C@@H]2O)cc1 [compound 8, 1-(4′-acetamidophenoxy) mannose]	1.8	51000 µg/mL and 164000 µM	no change	100	low	–	44.9	44.9	336	14.2	0.349	24.7	39.5	–
CC(=O)Nc1ccc(O[C@@H]2CCC(O)[C@@H](CO)O2)cc1 (some centres unmarked) [compound 12, 1-(4′-acetamidophenoxy) 2,3-dideoxy glucose]	0.3	9000 µg/mL and 31000 µM	–	–	–	–	–	–	–	–	–	–	–	stability to the pD's (in words) [2]: a lot of instability; Time to % hydrolysis t10% ([2]; pD 5, D2O): 7 days; Time to % hydrolysis t25% ([2]; pD 5, D2O): 20 days; Time to % hydrolysis t50% ([2]; pD 5, D2O): 58 days; Time to % hydrolysis t10% ([2]; pD 6, D2O): 48 days
CC(=O)Nc1ccc(O[C@H]2O[C@H](COC(C)=O)[C@@H](O)[C@H](O)[C@@H]2O)cc1 [compound 15]	5.6	203000 µg/mL and 570000 µM	–	100	low	–	14.2	14.2	95.8	10.2	0.8	78.7	13.2	–
CCCC(=O)OC[C@H]1O[C@H](Oc2ccc(NC(C)=O)cc2)[C@@H](O)[C@@H](O)[C@@H]1O [compound 18, 1-(4′-acetamidophenoxy)-6-O-butyrylmannose]	0.81	30000 µg/mL and 77000 µM	–	100	low	–	3.31	3.3	43.1	4.56	1.56	345	3.13	–
acetaminophen	–	–	no change	–	–	–	–	–	–	–	–	–	–	D2O solubility (mM) [1, 6]: 95 mM; D2O solubility (mg/mL) [1, 6]: 13 mg/mL; literature value of acetaminophen's solubility [4]: 14 mg/mL; mean concentration of acetaminophen in rat plasma or blood ([5]; 2 min after IV dose of acetaminophen or pro-drug): 133.854 µM; mean concentration of acetaminophen in rat plasma or blood ([5]; 5 min after IV dose of acetaminophen or pro-drug): 89.75 µM; mean concentration of acetaminophen in rat plasma or blood ([5]; 0.250 h after IV dose of acetaminophen or pro-drug): 45.118 µM; mean concentration of acetaminophen in rat plasma or blood ([5]; 0.500 h after IV dose of acetaminophen or pro-drug): 23.661 µM; mean concentration of acetaminophen in rat plasma or blood ([5]; 2.00 h after IV dose of acetaminophen or pro-drug): 0.823 µM; mean concentration of acetaminophen in rat plasma or blood ([5]; 4.00 h after IV dose of acetaminophen or pro-drug): 0.528 µM; mean concentration of acetaminophen in rat plasma or blood ([5]; 6.00 h after IV dose of acetaminophen or pro-drug): 0.237 µM; mean concentration of acetaminophen in rat plasma or blood ([5]; 8.00 h after IV dose of acetaminophen or pro-drug): 0.108 µM; AUCinf of acetaminophen [5, 7]: 41.231 µM·h; AUCinf/AUClast of acetaminophen [5, 7]: 100%; AUClast of acetaminophen [5, 7]: 41.031 µM·h; MRTinf of acetaminophen [5, 7]: 39.7 min; Vdss of acetaminophen [5, 7]: 1.06 L/kg; t1/2 of acetaminophen from the pro-drug [5, 7]: 148 min; C0 ([5]; read-out: C0 of acetaminophen, acetaminophen analyte after IV dose of acetaminophen or pro-drug, extrapolated to time 0): 175 µM

Further lines, with some results ahead:

relative molar solubility [1]	solubility at 3 days [1]	change in 1H NMR spectra [2]	AUCinf/AUClast of the pro-drug [3] [%]	AUC of the pro-drug (in words) [3]	half-lives of the pro-drug (in words) [3]	AUC(0-inf) (in vivo) [µM·h]	AUC(0-t) (in vivo) [µM·h]	C0 (in vivo) [µM]	MRT inf (in vivo) [min]	Vd (in vivo) [L/kg]	clearance (in vivo) [mL/min/kg]	half-life (in vivo) [min]	Compound	further results
0.43	16000 µg/mL and 41000 µM	–	100	low	–	3.68	3.68	31.1	8.7	1.77	203	14.6	CC(=O)Nc1ccc(O[C@H]2O[C@H](COC(=O)C(C)C)[C@@H](O)[C@H](O)[C@@H]2O)cc1 [compound 19, 1-(4′-acetamidophenoxy)-6-O-isobutyrylmannose]	–
–	–	–	100	high	relatively high	51.9	51.8	218	25.2	0.549	22.7	123	CC(=O)Nc1ccc(O[C@H]2O[C@H](COC(=O)CCC(=O)O)[C@@H](O)[C@H](O)[C@@H]2O)cc1 [compound 20]	–
2.1	60000 µg/mL and 202000 µM	–	100	high	relatively high	44.1	44	123	52.7	1.58	24.9	116	CC(=O)Nc1ccc(O[C@H]2O[C@H](C)[C@@H](O)[C@H](O)[C@@H]2O)cc1 [compound 23, 1-(4′-acetamidophenoxy)-6-deoxymannose]	–
